Assay results: paper PMC7083837 (Nature Communications, 2020)
pIC50, pKi: −log10 of the molar value. Values joined by “and” are separate entries in the source; they are usually repeats but may differ in a detail not shown here. Identical values can stand only once.

Key:
SERT WT [1] = molecular target: T1, SERT WT (Homo sapiens, UniProt P31645); experiment: [3H]IMI dissociation rate assay (allosteric potency); assay type: binding;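 further: membranes of COS-7 cells transiently expressing hSERT, dissociation of prebound radioligand tracked by filtration over seven time points (5–70 min), rate constant with test ligand expressed relative to buffer-only rate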
T1 construct: expressed in transfected cells; host or cells: COS-7
T1 sequence (P31645 whole entry): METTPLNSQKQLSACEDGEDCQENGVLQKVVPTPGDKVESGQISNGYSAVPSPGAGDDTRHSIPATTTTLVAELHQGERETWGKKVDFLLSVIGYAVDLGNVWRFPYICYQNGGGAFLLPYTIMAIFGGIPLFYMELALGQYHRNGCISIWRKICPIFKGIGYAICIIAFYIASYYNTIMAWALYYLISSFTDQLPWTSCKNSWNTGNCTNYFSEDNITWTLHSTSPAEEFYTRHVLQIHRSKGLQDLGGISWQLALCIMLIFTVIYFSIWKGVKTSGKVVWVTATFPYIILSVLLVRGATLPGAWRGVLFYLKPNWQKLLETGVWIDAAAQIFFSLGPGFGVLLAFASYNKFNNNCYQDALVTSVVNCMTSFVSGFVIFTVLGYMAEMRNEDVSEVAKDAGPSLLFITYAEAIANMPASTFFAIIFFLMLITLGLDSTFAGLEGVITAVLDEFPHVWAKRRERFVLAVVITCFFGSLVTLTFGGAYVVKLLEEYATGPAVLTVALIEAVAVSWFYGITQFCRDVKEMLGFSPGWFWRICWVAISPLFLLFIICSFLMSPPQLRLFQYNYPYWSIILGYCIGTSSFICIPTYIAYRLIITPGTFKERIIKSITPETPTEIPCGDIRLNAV

SERT WT [2] = molecular target: T1, SERT WT; experiment: [3H]IMI competitive binding on COS-7 membranes
Description: [^3H]S-CIT and [^3H]IMI competitive binding experiments were performed on membrane preparations of COS-7 cells transiently transfected with SERT WT. Membrane aliquots were mixed with membrane buffer containing 5–10 nM of either [^3H]S-CIT or [^3H]IMI and Lu AF60097 in the indicated concentrations to a final volume of 300 µL. The binding experiments were incubated 1 h at room temperature and subsequently filtered, washed and counted as described under ‘[^3H]IMI and [^3H]S-CIT dissociation rate assay’. Non-specific binding was determined by adding 5 µM paroxetine.

SERT F556R = molecular target: T2, SERT F556R (Homo sapiens, UniProt P31645, F556R); experiment: [3H]5-HT uptake in intact COS-7 cells; assay type: cell-based; conditions: for 5-HT uptake inhibition by Lu AF60097: Fig 5A
T2 construct: expressed in transfected cells; host or cells: COS-7
T2 sequence (P31645 whole entry F556R): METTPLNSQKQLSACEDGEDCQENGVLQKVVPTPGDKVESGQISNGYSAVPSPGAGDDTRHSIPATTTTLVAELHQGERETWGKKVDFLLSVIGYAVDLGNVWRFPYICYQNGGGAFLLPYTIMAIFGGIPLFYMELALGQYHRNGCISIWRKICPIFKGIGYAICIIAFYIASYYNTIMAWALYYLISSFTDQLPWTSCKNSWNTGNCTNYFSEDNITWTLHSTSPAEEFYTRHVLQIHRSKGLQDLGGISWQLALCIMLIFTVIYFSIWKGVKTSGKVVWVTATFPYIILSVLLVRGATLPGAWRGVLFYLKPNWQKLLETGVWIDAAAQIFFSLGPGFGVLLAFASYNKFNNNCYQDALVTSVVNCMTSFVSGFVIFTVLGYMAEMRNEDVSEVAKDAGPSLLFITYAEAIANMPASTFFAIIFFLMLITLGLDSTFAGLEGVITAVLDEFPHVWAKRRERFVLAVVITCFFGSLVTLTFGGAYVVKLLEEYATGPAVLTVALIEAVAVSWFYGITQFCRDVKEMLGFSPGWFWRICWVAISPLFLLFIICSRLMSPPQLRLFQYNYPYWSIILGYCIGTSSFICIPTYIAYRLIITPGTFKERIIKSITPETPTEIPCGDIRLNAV

[3] = tested on: extracellular 5-HT levels in rat hippocampus; experiment: Microdialysis in ventral hippocampus of freely moving rats; assay type: in vivo; set-up: extracellular 5-HT level / AUC: unit not given here;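 on extracellular 5-HT level: percent of mean basal level in three fractions before perfusion start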

Structure (SMILES): NC(=O)c1ccc2c(c1)CO[C@@]2(CCCN1CCC(c2ccc3ccc(=O)[nH]c3c2)CC1)c1ccc(F)cc1 [Lu AF60097, (S)-1-(4-fluorophenyl)-1-(3-(4-(2-oxo-1,2-dihydroquinolin-7-yl)piperidin-1-yl)propyl)-1,3-dihydroisobenzofuran-5-carboxamide]
- Higher allosteric potency with prebound [^3H]IMI relative to prebound [^3H]S-CIT (SERT WT [1]; SERT WT): 200 fold
- [^3H]IMI dissociation relative to control (source data Fig 3C) (SERT WT [1]; SERT WT, log conc -5.4318): 0.0325
- [^3H]IMI dissociation relative to control (source data Fig 3C) (SERT WT [1]; SERT WT, log conc -7.3398): 0.5967 and 0.5153 and 0.3551 and 0.4862 and 0.4455
- [^3H]IMI dissociation relative to control (source data Fig 3C) (SERT WT [1]; SERT WT, log conc -7.817): 0.6907 and 0.7383 and 0.5957 and 0.7538 and 0.5364
- [^3H]IMI dissociation relative to control (source data Fig 3C) (SERT WT [1]; SERT WT, log conc -8.2941): 0.7767 and 0.8969 and 0.8389 and 0.8612 and 0.685
- [^3H]IMI dissociation relative to control (source data Fig 3C) (SERT WT [1]; SERT WT, log conc -8.7712): 0.9679 and 0.8619
- pIC50 (SERT WT [1]; SERT WT, read-out: Allosteric potency inhibition of [^3H]IMI dissociation (IC50)): 7.50 and 7.51
- Gain in allosteric potency relative to any other reported S2-bound hSERT ligand (SERT WT [1]; comparison with ref 22): > 100 fold
- Increase in allosteric potency compared with citalopram (SERT WT [1]; in the presence of S1:IMI): > 150 fold
- Displacement of [^3H]IMI in binding experiment (SERT WT [2]; equilibrium binding, SERT WT membranes): not displaced
- Displacement of [3H]IMI binding (normalized bound, Fig S6) (SERT WT [2]; log[Lu AF60097] -4.9586): 0.8037 and 0.8081 and 0.979
- Displacement of [3H]IMI binding (normalized bound, Fig S6) (SERT WT [2]; log[Lu AF60097] -5.2596): 0.9221 and 1.029 and 1.04
- Displacement of [3H]IMI binding (normalized bound, Fig S6) (SERT WT [2]; log[Lu AF60097] -5.5607): 1.05 and 0.9989 and 1.0302
- Displacement of [3H]IMI binding (normalized bound, Fig S6) (SERT WT [2]; log[Lu AF60097] -5.8617): 1.118 and 1.161 and 1.01
- Displacement of [3H]IMI binding (normalized bound, Fig S6) (SERT WT [2]; log[Lu AF60097] -6.1627): 1.173 and 1.156 and 0.9563
- Displacement of [3H]IMI binding (normalized bound, Fig S6) (SERT WT [2]; log[Lu AF60097] -6.4638): 1.154 and 1.04 and 1.011
- Displacement of [3H]IMI binding (normalized bound, Fig S6) (SERT WT [2]; log[Lu AF60097] -6.7648): 1.061 and 1.088 and 0.8905
- Displacement of [3H]IMI binding (normalized bound, Fig S6) (SERT WT [2]; log[Lu AF60097] -7.0658): 1.098 and 0.9993 and 0.8339
- Displacement of [3H]IMI binding (normalized bound, Fig S6) (SERT WT [2]; log[Lu AF60097] -7.3668): 1.049 and 0.9798
- Displacement of [3H]IMI binding (normalized bound, Fig S6) (SERT WT [2]; log[Lu AF60097] -7.6679): 1.052 and 1.0159
- 5-HT uptake inhibition by Lu AF60097 (SERT F556R; [Lu AF60097] -5.5): 0.1354
- 5-HT uptake inhibition by Lu AF60097 (SERT F556R; [Lu AF60097] -6): 0.2671
- 5-HT uptake inhibition by Lu AF60097 (SERT F556R; [Lu AF60097] -6.5): 0.5785
- 5-HT uptake inhibition by Lu AF60097 (SERT F556R; [Lu AF60097] -7): 0.7467
- 5-HT uptake inhibition by Lu AF60097 (SERT F556R; [Lu AF60097] -7.5): 0.9156
- 5-HT uptake inhibition by Lu AF60097 (SERT F556R; [Lu AF60097] -8): 0.9992
- 5-HT uptake inhibition by Lu AF60097 (SERT F556R; [Lu AF60097] -9): 0.9608
- 5-HT uptake inhibition by Lu AF60097 (SERT F556R; [Lu AF60097] -10): 1.013
- pKi (SERT F556R; SERT F556R): 6.59
- Maximum extracellular 5-HT level, % of basal level ([3]; 1 µl (250 nM) injected in ventral hippocampus): 602 ± 156%
- Hippocampal 5-HT level above saline ([3]; 1 µl of 250 nM injected locally, after 2 h): about 6 fold
- extracellular 5-HT level ([3]; Fig 6A, time 0): 99.15 and 92.9 and 84.7 and 127.51 and 96.31 and 90.57
- extracellular 5-HT level ([3]; Fig 6A, time -20): 99.13 and 103.53 and 109.41 and 104.22 and 103.69 and 101.06
- extracellular 5-HT level ([3]; Fig 6A, time -40, single animals): 101.72 and 103.57 and 105.89 and 68.26 and 100 and 108.37
- AUC ([3]; Fig 6B Inset, single animals): 160 and 33 and 22 and 96 and 107 and 114 and 155 and 78 and 140 and 79 and 75 and 81 and 29 and 143 and 77
- extracellular 5-HT level ([3]; Fig 6B, Time -40, single animals): 98.41 and 131.26 and 120.63 and 87.45 and 121.36 and 138.4 and 108.61 and 82.38 and 85.26 and 67.86 and 55.86 and 116.12
